Experimental data from patent US10653658B2, “Biofilm inhibiting compositions enhancing weight gain in livestock” (Akeso Biomedical, Inc., priority 2015, dated 2020).

Test system: Campylobacter
Assay: Campylobacter carriage in chickens, cfu/g of droppings and caeca at day 42 (Example 1)
Assay type: in vivo
Experimental: A study was performed to evaluate growth promotion and reduction of Campylobacter carriage using FeQ and FeTyr in Ross 308 male broilers with 7 treatment groups. Each treatment group comprised four replicates of 10 birds per pen (40 birds/treatment group and 4 pens of 10 birds/treatment group), with 2 control groups and 5 test groups. All the test groups and one of the control groups were exposed at day 20 of the trial to dirty litter, which tested positive for Campylobacter. This method was used to provide a more natural method to Campylobacter challenge the birds. Thus there was a positive control where one treatment group was challenged with Campylobacter and one negative control group where the birds were not challenged, and five treatment groups that were all challenged with Campylobacter. The total number of birds used in the 7 treatment groups was 280. Treatment group 1 was a negative control where birds just received the commercial feed, and were not challenged with dirty litter containing Campylobacter. Treatment group 2 was the positive control where the birds received the commercial feed, and were challenged with dirty litter containing Campylobacter at day 20. Treatment group 3 received 0.22 g/L of FeQ in their drinking water and 0.22 g/Kg FeQ in their feed during the entire trial, and was challenged with dirty litter containing Campylobacter at day 20. Treatment group 5 received 0.22 g/L of FeQ in their drinking water during the entire trial, and was challenged with dirty litter containing Campylobacter at day 20. Treatment group 6 received 0.22 g/kg FeQ in their feed during the entire trial, and was challenged with dirty litter containing Campylobacter at day 20. Treatment group 7 received 0.022 g/L FeQ in their drinking water during the entire trial, and was challenged with dirty litter containing Campylobacter at day 20. Treatment group 8 received 0.02 g/L FeTyr in their drinking water during the entire trial, and was challenged with dirty litter containing Campylobacter at day 20. The FeTyr was pre-dissolved in DMSO, and diluted to provide a solution of 0.02 g/L of FeTyr in water. (An additional treatment group 4 was terminated due to solubility issues.)
Prior to challenging the chickens with dirty litter containing Campylobacter at day 20, each pen was tested for Campylobacter using cloacal swabs. All pens tested negative for Campylobacter prior to the challenge. At day 20, litter, which was naturally Campylobacter-contaminated, was tested to confirm the presence of Campylobacter, and then added (approximately 2 kg/pen) to the litter in all pens except in pens for treatment group 1 (the negative control). At day 28, the pen litter was sampled to confirm the presence or absence of Campylobacter. At day 41 and 42, caecal samples were taken from 3 birds per pen (12 birds per treatment group) and tested for Campylobacter enumeration. At day 42, digesta, fecal samples, and caecal content was taken from all birds, and pooled per pen. Two birds per pen were also taken from treatment groups 1-3, euthanized, and blood samples taken. Samples were analyzed for blood chemistry, including analysis for alkaline phosphatase, aspartate amino transferase, alanine amino transferase, gamma-glutamyl transferase, lactate dehydrogenase, total protein, albumin, globulin, amylase and glucose.

## O=C([O-])C1(O)CC(O)C(O)C(O)C1.O=C([O-])C1(O)CC(O)C(O)C(O)C1.O=C([O-])C1(O)CC(O)C(O)C(O)C1.[Fe+3] (stereo not shown) [FeQ, Ferric Quinate]
0.022 g/L FeQ in water, treatment group 7, considered likely experimental error
  Campylobacter cfu/g of bird droppings at day 42 (FIG. 3), low concentration: less of an effect than the other treatment groups
Treatment group 7: 0.022 g/L FeQ in water
  Campylobacter cfu/g of caeca samples at day 42 (FIG. 4), low concentration: highly beneficial effect
Treatment groups 3 and 5-8
  Campylobacter cfu/g of caeca samples at day 42 compared with positive control (FIG. 4): positive effect on reducing Campylobacter infection
Treatment groups 3 and 6-8
  Campylobacter cfu/g of bird droppings at day 42 compared with positive control (FIG. 3): positive effect on reducing Campylobacter infection
